The record followed here is paper PMC4496089, “Screening for FtsZ Dimerization Inhibitors Using Fluorescence Cross-Correlation Spectroscopy and Surface Resonance Plasmon Analysis” (PLoS ONE, 2015).

≈ marks a conversion by molar mass, not a printed value.

In assay [1] the test system is S. aureus FtsZ (FtsZ^K175D_N-terminal-EGFP and FtsZ_C-terminal-mCherry). The experiment in a line: FCCS screening for inhibition of GTP-dependent head-to-tail dimerization of fragmented FtsZ. Format: biochemical, Staphylococcus aureus. As to conditions: from FCCS binding ratio; chemical 20 or 100 μM, GTP 2 mM, 30 min; mean (SD), n = 3. As for the experimental part: The purified FtsZ^K175D_N-terminal-EGFP and FtsZ_C-terminal-mCherry were mixed in 0.44–0.85 μM each in a buffer composed of 50 mM Tris-HCl [pH 8.0], 500 mM Na2SO4 and 5 mM MgCl2. Mixed samples were dispensed as 48.5 μL aliquots into a 384-well glass bottom microplate (Olympus) and a 0.5 μL aliquot of the chemical at a concentration of 2 or 10 mM was added to each well. The final concentration of the chemicals was 20 or 100 μM. After mixing, FCCS measurement was performed (premeasurement, data not shown). After premeasurement of FCCS, 1 μL of GTP (100 mM) was added to each well (final concentration: 2 mM). After mixing and 30 min incubation at room temperature, FCCS measurement was performed. Using samples purified on a different day, independent screening was performed 3 times.
The data acquired from FCCS were analyzed using ZEN software (Zeiss, Germany). The fluorescence autocorrelation functions from the green, G G (τ), and red channels, G R (τ), and the fluorescence cross-correlation functions, G C (τ) were calculated according to the normalized correlation function. GG(τ)=1+⟨δIG(t)⋅δIG(t+τ)⟩/⟨IG(t)⟩⋅⟨IG(t)⟩ (1) GR(τ)=1+⟨δIR(t)⋅δIR(t+τ)⟩/⟨IR(t)⟩⋅⟨IR(t)⟩ (2) GC(τ)=1+⟨δIG(t)⋅δIR(t+τ)⟩/⟨IG(t)⟩⋅⟨IR(t)⟩ (3) where τ denotes the time delay, I G is the fluorescent intensity of the green channel, and I R is the fluorescent intensity of the red channel. The acquired autocorrelations were fitted using a two-component model, and cross-correlation was fitted using a one-component model. G(τ)=1+1−Ftriplet+Ftripletexp(−τ/τtrplet)/N(1−Ftriplet)×((Ffast/1+τ/τfast)1/1+τ/s^2τfast+(Fslow/1+τ/τslow)1/1+τ/s^2τslow) (4) where F triplet is the average fraction of triplet state molecules (in the fitting of cross-correlation, assuming F triplet is 0), τ triplet is the triplet relaxation time, and F fast and F slow are the fractions of the fast and slow components, respectively. τ fast and τ slow are the diffusion times of the fast and slow components, respectively. In the fitting of G G (τ), τ fast was fixed in the range from 100 to 200 μs. In the fitting of G R (τ), τ fast was fixed in the range from 200 to 300 μs. N is the average number of fluorescent particles in the excitation-detection volume defined by radius w, z is half of the long axis of the confocal volume element, and s is the structural parameter representing the ratio s = z/w. The values of w i (i = G or R) are determined from the diffusion coefficients of the rhodamine 6G and Alexa Fluor 594 used as standard dyes, respectively.
The average number calculated from autocorrelation N G and N R and complex cross-correlated particles N C is given by NG=1/GG(0)−1 (5) NR=1/GR(0)−1 (6) NC=GC(0)−1/(GR(0)−1)⋅(GG(0)−1) (7)
The binding ratio (BR), which directly indicates the tendency of interaction between FtsZ^K175D_N-terminal-EGFP and FtsZ_C-terminal-mCherry, was defined by the following Eq (8). When a chemical has a higher inhibitory effect, BR should be lower. BR=NC/NG (8)
Moreover, inhibition % was calculated using the following Eq (9). The inhibition % should be higher when the chemical has a higher inhibitory effect. inhibition%=BRDMSO,GTP(+)−BRchemical,GTP(+)/BRDMSO,GTP(+)×100 (9) where BR DMSO,GTP(+) is the binding ratio in the presence of DMSO (vehicle) and GTP is the control value indicating no inhibition, BR chemical,GTP(+) is the binding ratio in the presence a chemical and GTP. Considering the background, Eq (9) can be shown as follows. inhibition%=(BRDMSO,GTP(+)−BRbackground)−(BRchemical,GTP(+)−BRbackground)/BRDMSO,GTP(+)−BRbackground×100=BRDMSO,GTP(+)−BRchemical,GTP(+)/BRDMSO,GTP(+)−BRbackground×100 (10) where BR background is the binding ratio of the background obtained in the absence of GTP.

The subject of assay [2] is S. aureus ATCC 29213 (MSSA). As to the kind of experiment: Antibiotic susceptibility test (broth microdilution MIC). As to conditions: S. aureus ATCC 29213 (MSSA), CAMHB, 35°C, 16 to 20 hours; for MIC: Staphylococcus aureus, read-out: Minimal inhibitory concentration. Format: cell-based, Staphylococcus aureus. The method, then:
(§1) Antimicrobial susceptibility testing was performed by broth microdilution in cation-adjusted Mueller–Hinton broth (CAMHB) according to the CLSI guidelines. Overnight culture was suspended in CAMHB, and the OD625 was measured using an Ultrospec 6300 pro spectrophotometer (GE Healthcare). The culture suspension was diluted to 0.01 of the OD625, and 5 μL of it was inoculated into test medium containing the test chemical. Then incubation was performed at 35°C for 16 to 20 hours. The final inoculum size corresponded to ca. 5 x 10^4 CFU per well, which corresponded to ca. 5 x 10^5 CFU/mL. The minimum inhibitory concentration (MIC) endpoint was defined as the lowest concentration of the test chemical that inhibited bacterial growth as detected by the unaided eye.
(In general: Dilution methods test growth across graded concentrations, often in twofold steps.)

The subject of another assay is A. baumannii ATCC 19606. Described as above. Format: cell-based. As to conditions: Acinetobacter baumannii, ATCC19606; A. baumannii ATCC 19606; CAMHB, 35°C, 16 to 20 hours; read-out: Minimal inhibitory concentration. As for the experimental part:
as §1

A further assay relates to E. coli ATCC 25922. The assay is described as above. Format: cell-based. To be noted: Escherichia coli, ATCC25922; E. coli ATCC 25922; CAMHB, 35°C, 16 to 20 hours; read-out: Minimal inhibitory concentration. The method, then:
as §1

Another assay concerns E. faecalis ATCC 29212. The description is as above. In kind it is cell-based. As to conditions: Enterococcus faecalis, ATCC29212; E. faecalis ATCC 29212; CAMHB, 35°C, 16 to 20 hours; read-out: Minimal inhibitory concentration. As for the experimental part:
as §1

The next assay deals with E. faecalis SR7914 (VRE). The assay is described as above. In kind it is cell-based. To be noted: Enterococcus faecalis; E. faecalis SR7914 (VRE); CAMHB, 35°C, 16 to 20 hours; read-out: Minimal inhibitory concentration. As for the experimental part: as §1
A further assay concerns E. faecium ATCC 19434. Described as above. In kind it is cell-based. To be noted: Enterococcus faecium, ATCC19434; E. faecium ATCC 19434; CAMHB, 35°C, 16 to 20 hours; read-out: Minimal inhibitory concentration. As for the experimental part:
as §1

A further assay concerns E. faecium SR7917 (VRE). Described as above. In kind it is cell-based. As to conditions: Enterococcus faecium; E. faecium SR7917 (VRE); CAMHB, 35°C, 16 to 20 hours; read-out: Minimal inhibitory concentration. The method, then: as §1
The next assay has as its system H. influenzae ATCC 10211. Described as above. To be noted: Haemophilus influenzae, ATCC10211; H. influenzae ATCC 10211; CAMHB, 35°C, 16 to 20 hours; read-out: Minimal inhibitory concentration. Format: cell-based. The method, then: as §1
A further assay deals with K. pneumoniae ATCC 13883. The assay is described as above. In kind it is cell-based. To be noted: Klebsiella pneumoniae, ATCC13883; K. pneumoniae ATCC 13883; CAMHB, 35°C, 16 to 20 hours; read-out: Minimal inhibitory concentration. The method, then:
as §1

The next assay deals with P. aeruginosa ATCC 27853. The assay is described as above. In kind it is cell-based. As to conditions: Pseudomonas aeruginosa, ATCC27853; P. aeruginosa ATCC 27853; CAMHB, 35°C, 16 to 20 hours; read-out: Minimal inhibitory concentration. As for the experimental part: as §1
The subject of a further assay is S. aureus SR3637 (MRSA). The description is as above. In kind it is cell-based. As to conditions: Staphylococcus aureus; S. aureus SR3637 (MRSA); CAMHB, 35°C, 16 to 20 hours; read-out: Minimal inhibitory concentration. The method, then:
as §1

For the next assay, the system named is S. pneumoniae Type I. The assay is described as above. In kind it is cell-based. As to conditions: Streptococcus pneumoniae; S. pneumoniae Type I; CAMHB, 35°C, 16 to 20 hours; read-out: Minimal inhibitory concentration. The method, then: as §1

With `COc1ccc(C2C=C(c3ccc(Br)cc3)N=C3NC(NS(C)(=O)=O)=NN32)cc1` (stereo not drawn) [Chemical #1], the inhibition % in [1] was 88.6 (6.8) %. Moreover, the MIC (in assay [2]; with A. baumannii ATCC 19606; in the assay on E. coli ATCC 25922; with E. faecalis ATCC 29212; in the assay with E. faecalis SR7914 (VRE); in the assay on E. faecium ATCC 19434) was more than 64 µg/mL each time. Further, the MIC in the assay on E. faecium SR7917 (VRE), in the assay with H. influenzae ATCC 10211, in the assay on K. pneumoniae ATCC 13883, in the assay on P. aeruginosa ATCC 27853, with S. aureus SR3637 (MRSA) and in the assay on S. pneumoniae Type I was more than 64 µg/mL each time.

Turning to `O=C(NNS(=O)(=O)c1cc(Cl)ccc1Cl)c1cc2c(s1)CCCC2` [Chemical #3], in assay [1], the inhibition % is 68.5 (1.7) %. The MIC (in assay [2]; in the assay on A. baumannii ATCC 19606; in the assay with E. coli ATCC 25922; in the assay on E. faecalis ATCC 29212; in the assay on E. faecalis SR7914 (VRE); in the assay on E. faecium ATCC 19434) was more than 64 µg/mL throughout. In addition, the MIC in the assay with E. faecium SR7917 (VRE), in the assay with H. influenzae ATCC 10211, in the assay on K. pneumoniae ATCC 13883, in the assay on P. aeruginosa ATCC 27853, with S. aureus SR3637 (MRSA) and in the assay with S. pneumoniae Type I was more than 64 µg/mL throughout.

Take `O=C(NNC(=S)NC1CC2CCC1C2)c1cc2ccccc2cc1O` (stereo not drawn) [Chemical #4]: the inhibition % in [1] is 64.4 (5.8) %. Moreover, the MIC (in assay [2]; with A. baumannii ATCC 19606; in the assay on E. coli ATCC 25922; in the assay with E. faecalis ATCC 29212; in the assay with E. faecalis SR7914 (VRE); in the assay on E. faecium ATCC 19434) was more than 32 µg/mL throughout. Also, the MIC with E. faecium SR7917 (VRE), with H. influenzae ATCC 10211, in the assay with K. pneumoniae ATCC 13883, with P. aeruginosa ATCC 27853, with S. aureus SR3637 (MRSA) and in the assay on S. pneumoniae Type I was more than 32 µg/mL throughout.

Regarding `O=C(c1cccc(-n2cnnc2)c1)N1CC2CCC(Cc3cccc(Cl)c3)C2C1` (stereo not drawn) [Chemical #5], in [1], the inhibition % is listed as 46.7 (11.4) %. Also, the MIC (in assay [2]; in the assay on A. baumannii ATCC 19606; in the assay with E. coli ATCC 25922; in the assay with E. faecalis ATCC 29212; with E. faecalis SR7914 (VRE); with E. faecium ATCC 19434) was more than 64 µg/mL each time. Further, the MIC with E. faecium SR7917 (VRE), in the assay on H. influenzae ATCC 10211, in the assay on K. pneumoniae ATCC 13883, in the assay on P. aeruginosa ATCC 27853, with S. aureus SR3637 (MRSA) and with S. pneumoniae Type I was more than 64 µg/mL in each case.

Take `CS(=O)(=O)NC1=NN2C(=NC(c3ccccc3)=CC2c2ccccc2Cl)N1` (stereo not drawn) [Chemical #6]: the inhibition % in assay [1] is 40.9 (1.2) %. For the same compound, the MIC (in [2]; with A. baumannii ATCC 19606; with E. coli ATCC 25922; in the assay on E. faecalis ATCC 29212; in the assay with E. faecalis SR7914 (VRE); in the assay on E. faecium ATCC 19434) was more than 64 µg/mL in each case. Also, the MIC with E. faecium SR7917 (VRE), with H. influenzae ATCC 10211, in the assay on K. pneumoniae ATCC 13883, with P. aeruginosa ATCC 27853, in the assay on S. aureus SR3637 (MRSA) and with S. pneumoniae Type I was more than 64 µg/mL each time.

Regarding `C[C@@H](O)[C@H]1C(=O)N2C(C(=O)O)=C(S[C@@H]3CN[C@H](CNS(N)(=O)=O)C3)[C@H](C)[C@H]12` [Doripenem, reference compound], in assay [2], the Minimal inhibitory concentration result is “≦0.063 μg/mL”. Further, the MIC was not above 0.063 µg/mL in [2]; 1 µg/mL (≈ 2.38 µM) in the assay with A. baumannii ATCC 19606; not above 0.063 µg/mL with E. coli ATCC 25922; 1 µg/mL (≈ 2.38 µM) in the assay with E. faecalis ATCC 29212; 8 µg/mL (≈ 19 µM) in the assay on E. faecalis SR7914 (VRE); 8 µg/mL (≈ 19 µM) in the assay on E. faecium ATCC 19434. Also, the MIC in the assay on E. faecium SR7917 (VRE) is 64 µg/mL (≈ 152 µM); with H. influenzae ATCC 10211 it was 0.125 µg/mL (≈ 0.297 µM); with K. pneumoniae ATCC 13883 it was 0.125 µg/mL (≈ 0.297 µM); in the assay on P. aeruginosa ATCC 27853, 0.5 µg/mL (≈ 1.19 µM); in the assay on S. aureus SR3637 (MRSA), 16 µg/mL (≈ 38 µM); in the assay with S. pneumoniae Type I, not above 0.063 µg/mL.
